In brackets after ≈: the same amount, converted by molar mass.
Tests used:
[1] = test system: Mycobacterium tuberculosis; assay: Antitubercular activity against Mycobacterium tuberculosis H37Ra transfected with TYOK plasmid assessed as relative light units after 4 days by selectable marker-free autoluminescent assay; type: functional; settings: 96 h
[2] = test system: Mycobacterium tuberculosis; assay: In vivo anti-tubercular activity against Mycobacterium tuberculosis H37Ra transfected with TYOK plasmid infected in BALB/c mouse assessed as increase in ratio of RLU on day 3 to RLU on day 1 at 10 mg/kg/day administered QD for 3 days relative to control; type: functional
[3] = Tmax in Sprague-Dawley rat at 10 mg/kg, administered through oral gavage by LC/MS analysis; type: ADME, organism-based; settings: in vivo
[4] = AUC (0 to infinity) in Sprague-Dawley rat at 10 mg/kg, administered through oral gavage by LC/MS analysis; type: ADME, organism-based; set-up: dose 10 mg/kg, time infinity, route oral; settings: in vivo
[5] = Oral bioavailability in Sprague-Dawley rat at 10 mg/kg by LC/MS analysis; type: ADME, organism-based; settings: in vivo
[6] = AUC (0 to infinity) in Sprague-Dawley rat at 2 mg/kg, iv by LC/MS analysis; type: ADME, organism-based; set-up: dose 2 mg/kg, time infinity, route intravenous; settings: in vivo
[7] = Half life in Sprague-Dawley rat at 10 mg/kg, administered through oral gavage by LC/MS analysis; type: ADME, organism-based; settings: in vivo
[8] = Clearance in Sprague-Dawley rat at 10 mg/kg, administered through oral gavage by LC/MS analysis; type: ADME, organism-based; settings: in vivo
[9] = Half life in Sprague-Dawley rat at 2 mg/kg, iv by LC/MS analysis; type: ADME, organism-based; settings: in vivo
[10] = test system: Mycobacterium tuberculosis; assay: In vivo anti-tubercular activity against Mycobacterium tuberculosis H37Ra transfected with TYOK plasmid infected in BALB/c mouse assessed as ratio of RLU on day 3 to RLU on day 1 at 2.5 mg/kg/day administered QD for 3 days; type: functional
[11] = test system: Mycobacterium tuberculosis; assay: In vivo anti-tubercular activity against Mycobacterium tuberculosis H37Ra transfected with TYOK plasmid infected in BALB/c mouse assessed as ratio of RLU on day 3 to RLU on day 1 at 40 mg/kg/day administered QD for 3 days; type: functional
[12] = Tmax in Sprague-Dawley rat at 2 mg/kg, iv by LC/MS analysis; type: ADME, organism-based; settings: in vivo
[13] = test system: Mycobacterium tuberculosis; assay: In vivo anti-tubercular activity against Mycobacterium tuberculosis H37Ra transfected with TYOK plasmid infected in BALB/c mouse assessed as ratio of RLU on day 3 to RLU on day 1 at 10 mg/kg/day administered QD for 3 days; type: functional
[14] = Cytotoxicity against African green monkey Vero cells assessed as reduction cell survival rate after 72 hrs by CCK8 assay; type: toxicity, cell-based, Chlorocebus sabaeus
[15] = Cmax in Sprague-Dawley rat at 2 mg/kg, iv by LC/MS analysis; type: ADME, organism-based; set-up: dose 2 mg/kg, route intravenous; settings: in vivo
[16] = Clearance in Sprague-Dawley rat at 2 mg/kg, iv by LC/MS analysis; type: ADME, organism-based; settings: in vivo
[17] = Cmax in Sprague-Dawley rat at 10 mg/kg, administered through oral gavage by LC/MS analysis; type: ADME, organism-based; set-up: dose 10 mg/kg, route oral; settings: in vivo
[18] = test system: Mycobacterium tuberculosis; assay: In vivo anti-tubercular activity against Mycobacterium tuberculosis H37Ra transfected with TYOK plasmid infected in BALB/c mouse assessed as decrease in ratio of RLU on day 3 to RLU on day 1 administered QD for 3 days; type: functional, organism-based
[19] = Solubility of the compound; type: physicochemical

Structure (SMILES) | MIC [1] | IC50 at 72 h [14] | further results
CO[C@H]1/C=C/O[C@@]2(C)Oc3c(C)c(O)c4c(O)c(c(/C=N/N5CCN(C)CC5)c(O)c4c3C2=O)NC(=O)/C(C)=C\C=C\[C@H](C)[C@H](O)[C@@H](C)[C@@H](O)[C@@H](C)[C@H](OC(C)=O)[C@@H]1C [RIFAMPIN] | 0.003 µg/mL (≈ 0.00365 µM) | – | –
CCc1nc2ccc(Cl)cn2c1C(=O)NCc1ccc(N2CCC(c3ccc(OC(F)(F)F)cc3)CC2)cc1 [TELACEBEC] | 0.003 µg/mL (≈ 0.00539 µM) | – | –
NNC(=O)c1ccncc1 [ISONIAZID] | 0.1 µg/mL (≈ 0.729 µM) | – | fold change (FC) [2]: 1.25
Cc1nn2ccc(=O)[nH]c2c1C(=O)NCc1ccc(N2CCC(c3ccc(OC(F)(F)F)cc3)CC2)cc1 | > 30 µg/mL | – | –
Cc1cn2nc(C)c(C(=O)NCc3ccc(N4CCC(c5ccc(OC(F)(F)F)cc5)CC4)cc3)c2s1 | 0.03 µg/mL (≈ 0.0568 µM) | > 100 µM | Tmax [3]: 5 h; AUC(0-inf) [4]: 8560 ng·h/mL; bioavailability [5]: 41.7%; AUC(0-inf) [6]: 4110 ng·h/mL; half-life [7]: 13.4 h; CL/F [8]: 20.2 mL/min/kg; half-life [9]: 14.1 h; Ratio [10]: 1.05; Ratio [11]: 0.36; Tmax [12]: 4.98 min; Ratio [13]: 0.91; Cmax [15]: 1720 ng/mL; clearance [16]: 8.17 mL/min/kg; Cmax [17]: 373 ng/mL; Activity [18]: Dose-dependent effect
Cc1nn2c(C)csc2c1C(=O)NCc1ccc(N2CCC(c3ccc(OC(F)(F)F)cc3)CC2)cc1 | 0.1 µg/mL (≈ 0.189 µM) | > 100 µM | –
Cc1nc2sccn2c1C(=O)NCc1ccc(N2CCC(c3ccc(OC(F)(F)F)cc3)CC2)cc1 | 0.03 µg/mL (≈ 0.0583 µM) | > 100 µM | –
Cc1ccn2nc(C)c(C(=O)NCc3ccc(N4CCC(c5ccc(OC(F)(F)F)cc5)CC4)cc3)c2n1 | > 30 µg/mL | – | –
Cc1ccc2oc(C)c(C(=O)NCc3ccc(N4CCC(c5ccc(OC(F)(F)F)cc5)CC4)cc3)c2c1 | > 30 µg/mL | – | –
Cc1nc2scc(C)n2c1C(=O)NCc1ccc(N2CCC(c3ccc(OC(F)(F)F)cc3)CC2)cc1 | 1 µg/mL (≈ 1.89 µM) | > 100 µM | solubility [19]: Insoluble
Cc1ccc2[nH]c(C)c(C(=O)NCc3ccc(N4CCC(c5ccc(OC(F)(F)F)cc5)CC4)cc3)c2c1 | 10 µg/mL (≈ 19.2 µM) | – | –
Cc1cn2c(C(=O)NCc3ccc(N4CCC(c5ccc(OC(F)(F)F)cc5)CC4)cc3)c(C)nc2s1 | 0.01 µg/mL (≈ 0.0189 µM) | > 100 µM | solubility [19]: Insoluble
Cc1nn2ccsc2c1C(=O)NCc1ccc(N2CCC(c3ccc(OC(F)(F)F)cc3)CC2)cc1 | 0.3 µg/mL (≈ 0.583 µM) | > 100 µM | –
